From publication PMC9814457 (2022)

Tested on: QDJ1 (model quadruplex-duplex junction) (DNA, G4) GGTTGGCGCGAAGCATTCGCGGGTTGG
Assay: NMR ligand protection (53-compound library, HSQC difference)
Conditions: 20 mM KCl; 20 mM K2HPO4, pH 7.0; 30 μM DNA

NCc1cc(CN)cc(CN)c1
binding: yes
